According to patent publication US7196114B2, “Substituted 3-(benzoylureido) thiophene derivatives, processes for preparing them and their use” (Sanofi-Aventis Deutschland GmbH, priority 2003, dated 2007):

What was measured:
[1] = target: T1, human glycogen phosphorylase a (Homo sapiens, UniProt P06737); assay: Glycogen phosphorylase a activity test; type: biochemical; conditions: inhibition of GPa in vitro, reverse direction (glycogen synthesis from glucose 1-phosphate, released inorganic phosphate, absorption at 820 nm)
T1 sequence (P06737 1-847): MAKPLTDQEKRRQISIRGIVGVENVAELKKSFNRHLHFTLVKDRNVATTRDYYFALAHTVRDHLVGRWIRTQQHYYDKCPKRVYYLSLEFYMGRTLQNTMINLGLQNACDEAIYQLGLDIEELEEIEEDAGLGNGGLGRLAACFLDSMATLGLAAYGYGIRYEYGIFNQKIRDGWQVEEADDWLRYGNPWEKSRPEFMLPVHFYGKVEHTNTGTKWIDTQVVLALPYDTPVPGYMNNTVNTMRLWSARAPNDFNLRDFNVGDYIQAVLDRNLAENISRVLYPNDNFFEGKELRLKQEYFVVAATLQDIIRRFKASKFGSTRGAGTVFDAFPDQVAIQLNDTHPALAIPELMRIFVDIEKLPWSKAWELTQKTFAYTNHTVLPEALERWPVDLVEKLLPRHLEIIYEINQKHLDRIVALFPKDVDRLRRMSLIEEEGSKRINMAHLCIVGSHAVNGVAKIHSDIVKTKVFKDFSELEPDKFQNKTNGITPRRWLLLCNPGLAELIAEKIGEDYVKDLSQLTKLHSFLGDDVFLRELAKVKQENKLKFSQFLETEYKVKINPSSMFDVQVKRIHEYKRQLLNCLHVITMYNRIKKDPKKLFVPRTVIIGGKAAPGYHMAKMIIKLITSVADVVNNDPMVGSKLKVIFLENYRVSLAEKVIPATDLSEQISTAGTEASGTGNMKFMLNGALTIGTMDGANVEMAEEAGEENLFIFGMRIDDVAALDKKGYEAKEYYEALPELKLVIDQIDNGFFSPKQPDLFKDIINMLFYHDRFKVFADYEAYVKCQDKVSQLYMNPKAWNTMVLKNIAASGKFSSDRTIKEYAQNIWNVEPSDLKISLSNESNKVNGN

| Structure (SMILES) | IC50 [1] [nM] | melting point |
| --- | --- | --- |
| O=C(NC(=O)c1cc(F)c(F)cc1Cl)Nc1ccsc1-c1n[nH]c(=O)o1 [Example 1d, 1-(2-Chloro-4,5-difluorobenzoyl)-3-[2-(5-oxo-4,5-dihydro[1,3,4]oxadiazol-2-yl)thiophen-3-yl]urea] | 30 | 236.1 °C |
| Nc1nnc(-c2sccc2NC(=O)NC(=O)c2cc(F)c(F)cc2Cl)o1 [Example 2c, 1-[2-(5-Amino[1,3,4]oxadiazol-2-yl)thiophen-3-yl]-3-(2-chloro-4,5-difluorobenzoyl)urea] | 450 |  |
| O=C(NC(=O)c1cc(F)c(F)cc1Cl)Nc1cc(-c2ccc(F)cc2)sc1C(=O)O [Example 3b, 3-[3-(2-Chloro-4,5-difluorobenzoyl)ureido]-5-(4-fluorophenyl)thiophene-2-carboxylic acid] | 10 | 227.7 °C |
| O=C(NC(=O)c1cc(F)c(F)cc1Cl)Nc1cc(S(=O)(=O)N2CCCCC2)sc1N1CCC(C(=O)O)CC1 [Example 4d, 1-[3-[3-(2-Chloro-4,5-difluorobenzoyl)ureido]-5-(piperidine-1-sulfonyl)-thiophen-2-yl]piperidine-4-carboxylic acid] | 110 | 219.9 °C |
| NC(=O)c1sccc1NC(=O)NC(=O)c1cc(F)c(F)cc1Cl [Example 6] | 700 |  |
| CC(=O)c1sc(-c2ccccc2)cc1NC(=O)NC(=O)c1cc(F)c(F)cc1Cl [Example 15] | 170 | 204.8 °C |
| NC(=O)c1sc(-c2ccccc2)cc1NC(=O)NC(=O)c1cc(F)c(F)cc1Cl [Example 17] | 30 | > 300 °C |
| O=C(NC(=O)c1cc(F)c(F)cc1Cl)Nc1cc(-c2ccccc2)sc1C(=O)O [Example 21] | 10 | 226.5 °C |
| NC(=O)c1sc(-c2cccs2)cc1NC(=O)NC(=O)c1cc(F)c(F)cc1Cl [Example 23] | 50 | > 250 °C (dec.) |
| COc1ccc(-c2cc(NC(=O)NC(=O)c3cc(F)c(F)cc3Cl)c(C(N)=O)s2)cc1 [Example 24] | 40 | > 300 °C |
| O=C(NC(=O)c1cc(F)c(F)cc1Cl)Nc1cscc1-c1ccccc1 [Example 30] | 1400 |  |
| O=C(NC(=O)c1ccc(F)cc1Cl)Nc1ccsc1-c1nnn[nH]1 [Example 33] | 80 | 219.8 °C |
